Laboratory results published in ChEMBL document CHEMBL6078722, “Structure-based development of N-Arylindole derivatives as Pks13 inhibitors against Mycobacterium tuberculosis” (Eur J Med Chem, 2025).
Converted amounts (≈) assume the structure as drawn. The source made the active and inactive calls. The rule behind the calls is not given here.

Assays:
[1] = tested on: Mycobacterium tuberculosis; assay: Antimicrobial activity against Mycobacterium tuberculosis H37Rv by MABA; type: functional
[2] = tested on: Mycobacterium tuberculosis; assay: Antimicrobial activity against Mycobacterium tuberculosis H37Rv; type: functional
[3] = tested on: Mycobacterium tuberculosis; assay: Antimicrobial activity against Mycobacterium tuberculosis H37Rv by microdilution method; type: functional
[4] = tested on: Mycobacterium tuberculosis; assay: Antimicrobial activity against Mycobacterium tuberculosis H37Rv incubated for 7 days by alamar blue microplate reader assay; type: functional; conditions: 168 h, time 7 day
[5] = Metabolic stability in human liver microsomes assessed as half life; type: ADME, Microsome
[6] = Metabolic stability in human liver microsomes assessed as intrinsic clearance; type: ADME, Microsome; conditions: read-out: CLH
[7] = Metabolic stability in human liver assessed as intrinsic clearance; type: ADME, tissue-based; conditions: read-out: CLH
[8] = Metabolic stability in human liver microsomes assessed as compound remaining after 60 mins in presence of NADPH; type: ADME, Microsome; conditions: read-out: Stability
[9] = tested on: Mycobacterium tuberculosis; assay: Antimicrobial activity against Mycobacterium tuberculosis H37Rv treated with compound diluted mouse serum at 1:8 to 1:64 serial dilution by MABA; type: functional, organism-based
[10] = tested on: Mycobacterium tuberculosis; assay: Bacteriostatic activity against Mycobacterium tuberculosis; type: functional

CC(=O)c1cn(-c2ccc(Br)cc2)c2ccc(O)c(CN3CCC(F)CC3)c12
MIC90 [1]: 0.28 µM (≈ 0.125 µg/mL)

CCOC(=O)c1c(-c2ccccc2)oc2ccc(O)c(CN3CCC(C)CC3)c12
MIC [2]: 2.3 µM (≈ 0.905 µg/mL)

Oc1ccc2c(c(-c3nnco3)cn2-c2ccc(Br)s2)c1CN1CCC1
MIC90 [1]: 1 µM (≈ 0.431 µg/mL)

CC(=O)c1cn(-c2ccc(Br)s2)c2ccc(O)c(CN3CC4(COC4)C3)c12
MIC90 [1]: 2 µM (≈ 0.895 µg/mL)

Oc1ccc2c(c(-c3nnco3)cn2-c2ccc(Br)cc2)c1CN1CC(F)C1
MIC90 [1]: 0.56 µM (≈ 0.248 µg/mL)

CC(=O)c1cn(-c2cccnc2)c2ccc(O)c(CN3CCC3)c12
MIC90 [1]: 100 µM (≈ 32.1 µg/mL)

COC(=O)c1c(NC(=O)c2c(F)c(F)c(F)c(F)c2F)sc2c1CCCCC2
MIC [3]: 1 µM (≈ 0.419 µg/mL)

CC(=O)c1cn(-c2ccc(C)s2)c2ccc(O)c(CN3CCC3)c12
MIC90 [1]: 0.37 µM (≈ 0.126 µg/mL)

Oc1ccc2c(c(-c3nnco3)cn2-c2ccc(Br)cc2)c1CN1CC2(COC2)C1
MIC90 [1]: 1 µM (≈ 0.467 µg/mL)

CNC(=O)c1cn(-c2ccc(Br)s2)c2ccc(O)c(CN3CCCCC3)c12
MIC90 [1]: 9 µM (≈ 4.04 µg/mL)

O=c1cc(-c2ccccc2O)oc2ccc(O)c(CN3CCC3)c12
MIC [4]: 1.39 µM (≈ 0.449 µg/mL)

CC(=O)c1cn(-c2ccc(Br)s2)c2ccc(O)c(CN3CCC3)c12
MIC90 [1]: 0.62 µM (≈ 0.251 µg/mL)

Oc1ccc2c(c(-c3nnco3)cn2-c2ccc(Br)cc2)c1CN1CCCC1
MIC90 [1]: 0.07 µM (≈ 0.0308 µg/mL) | half-life [5]: 1.09 h | microsomal CLint [6]: 21.2 µL/min/mg | CLint scaled [7]: 19 mL/min/kg | remaining at 1 h [8]: 53%

CC(=O)c1cn(-c2ncccn2)c2ccc(O)c(CN3CCC3)c12
MIC90 [1]: 99 µM (≈ 31.9 µg/mL)

CC(=O)c1c(C)n(-c2ccc(C3CCNCC3)cc2)c2ccc(O)c(CN3CCCCC3)c12
MIC90 [1]: 0.14 µM (≈ 0.0624 µg/mL) | half-life [5]: 0.345 h | microsomal CLint [6]: 66.9 µL/min/mg | CLint scaled [7]: 60.2 mL/min/kg | remaining at 1 h [8]: 11.3%

Oc1ccc2c(c(-c3nnco3)cn2-c2ccc(Br)cc2)c1CN1CCCCC1
MIC90 [1]: 0.07 µM (≈ 0.0317 µg/mL) | half-life [5]: 1.1 h | microsomal CLint [6]: 21 µL/min/mg | CLint scaled [7]: 18.9 mL/min/kg | remaining at 1 h [8]: 55%

CC(=O)c1cn(-c2ccc(Br)cc2)c2ccc(O)c(CN3CCCCC3)c12
MIC90 [1]: 0.07 µM (≈ 0.0299 µg/mL)

CC(=O)c1cn(-c2ccc(Br)cc2)c2ccc(O)c(CN3CCC3)c12
MIC90 [1]: 0.08 µM (≈ 0.0319 µg/mL)

Cc1ccc(-n2cc(-c3nnco3)c3c(CN4CCC4)c(O)ccc32)s1
MIC90 [1]: 3 µM (≈ 1.1 µg/mL)

CC(=O)c1cn(-c2ccc(-c3ccccc3)s2)c2ccc(O)c(CN3CCC3)c12
MIC90 [1]: 0.04 µM (≈ 0.0161 µg/mL) | half-life [5]: 2.17 h | microsomal CLint [6]: 10.7 µL/min/mg | CLint scaled [7]: 9.6 mL/min/kg | remaining at 1 h [8]: 68.6%

CC(=O)c1ccc(-n2cc(C(C)=O)c3c(CN4CCC4)c(O)ccc32)s1
MIC90 [1]: 5 µM (≈ 1.84 µg/mL)

Oc1ccc2c(c(-c3nnco3)cn2-c2ccc(Br)s2)c1CN1CC2(COC2)C1
MIC90 [1]: 8 µM (≈ 3.79 µg/mL)

CC(=O)c1cn(-c2cnccn2)c2ccc(O)c(CN3CCC3)c12
MIC90 [1]: 199 µM (≈ 64.2 µg/mL)

CC(=O)c1cn(-c2ccc(Br)cc2)c2ccc(O)c(CN3CCCC3)c12
MIC90 [1]: 0.3 µM (≈ 0.124 µg/mL)

CC(=O)c1cn(-c2ccc(Br)cc2)c2ccc(O)c(CN3CC(F)C3)c12
MIC90 [1]: 1 µM (≈ 0.417 µg/mL)

Oc1ccc2c(c(-c3nnco3)cn2-c2ccc(Br)cc2)c1CN1CCOCC1
MIC90 [1]: 4 µM (≈ 1.82 µg/mL)

COc1ccc(OC)c(-c2ccc(-c3cn(CCc4ccc(C(=O)N(C)C)cc4)nn3)cn2)c1
MIC [2]: 0.25 µM (≈ 0.114 µg/mL)

O=c1cc(-c2ccc(O)cc2)oc2ccc(O)c(CN3CCC3)c12
MIC [4]: 1.39 µM (≈ 0.449 µg/mL)

CC(=O)c1c(C)n(-c2ccc(Br)cc2)c2ccc(O)c(CN3CCCCC3)c12
MIC90 [1]: 0.28 µM (≈ 0.124 µg/mL) | half-life [5]: 0.967 h | microsomal CLint [6]: 23.9 µL/min/mg | CLint scaled [7]: 21.5 mL/min/kg | remaining at 1 h [8]: 47.3%

CC(=O)c1cn(-c2cccs2)c2ccc(O)c(CN3CCC3)c12
MIC90 [1]: 3 µM (≈ 0.979 µg/mL)

CC(=O)c1cn(-c2ccc(Br)s2)c2ccc(O)c(CN3CCCCC3)c12
MIC90 [1]: 0.58 µM (≈ 0.251 µg/mL)

Oc1ccc2c(c(-c3nnco3)cn2-c2ccc(Br)cc2)c1CN1CCC1
MIC90 [1]: 0.07 µM (≈ 0.0298 µg/mL) | half-life [5]: 1.67 h | microsomal CLint [6]: 13.8 µL/min/mg | CLint scaled [7]: 12.4 mL/min/kg | remaining at 1 h [8]: 61.7% | Activity [9]: Active

CNC(=O)c1c(-c2ccc(O)cc2)oc2ccc(O)c(CC3CCNCC3)c12
MIC [10]: 0.06 µM (≈ 0.0228 µg/mL)
